This is an account of results in US11427615B2, “Peptide compound and application thereof, and composition containing peptide compound” (XDCEXPLORER (SHANGHAI) CO., LTD., priority 2017, dated 2022).

Where two headings read alike, the source gives them in different places. Starred links: 1 amine or outer side, 2 acyl side, 3 side chain; linkers in the order of their positions; H or OH if unused. Non-standard residues stand in square brackets, D forms with d. Residues, ends and D or L forms follow the SMILES beside them. *: point of attachment. dPhe(2,4-Cl2) = N[C@H](Cc1ccc(Cl)cc1Cl)C(=O)O; PEG8 = NCCOCCOCCOCCOCCOCCOCCOCCOCCC(=O)O; Dip = N[C@H](C(=O)O)C(c1ccccc1)c1ccccc1; Phe(4-F) = N[C@@H](Cc1ccc(F)cc1)C(=O)O; Phe(4-Me) = Cc1ccc(C[C@H](N)C(=O)O)cc1; dAla(2-furyl) = N[C@H](Cc1ccco1)C(=O)O; dPhe(4-I) = N[C@H](Cc1ccc(I)cc1)C(=O)O; azaPhe = O=C(N(Cc1ccccc1)N[*:1])[*:2]; Arg(Me) = CNC(=N)NCCC[C@H](N)C(=O)O; Palmitoyl = CCCCCCCCCCCCCCCC(=O)*; Hyp = O=C(O)[C@@H]1C[C@@H](O)CN1; 2Thi = N[C@@H](Cc1cccs1)C(=O)O; Pip = O=C(O)[C@@H]1CCCCN1; dPip = O=C(O)[C@H]1CCCCN1; Ac6c = NC1(C(=O)O)CCCCC1; Aze = O=C(O)[C@@H]1CCN1; azaGly = NNC(=O)O

The assay deals with T1, human kiss1 receptor (GPR54) (Homo sapiens, UniProt Q969F8).
T1 construct: host or cells: NFAT-bla CHO-K1 cells (Chinese hamster ovary), purchased recombinant cell line
Nature of the assay: Kiss1 receptor (GPR54) binding activity of agonists, FRET detection in NFAT-bla CHO-K1 cells. The class given is cell-based.

[1] abbreviates: GPR54, measured according to the method of effect Embodiment 1, preliminary data, read-out: Preliminary measurement data (GPR54) EC50.

T1 sequence (Q969F8 whole entry): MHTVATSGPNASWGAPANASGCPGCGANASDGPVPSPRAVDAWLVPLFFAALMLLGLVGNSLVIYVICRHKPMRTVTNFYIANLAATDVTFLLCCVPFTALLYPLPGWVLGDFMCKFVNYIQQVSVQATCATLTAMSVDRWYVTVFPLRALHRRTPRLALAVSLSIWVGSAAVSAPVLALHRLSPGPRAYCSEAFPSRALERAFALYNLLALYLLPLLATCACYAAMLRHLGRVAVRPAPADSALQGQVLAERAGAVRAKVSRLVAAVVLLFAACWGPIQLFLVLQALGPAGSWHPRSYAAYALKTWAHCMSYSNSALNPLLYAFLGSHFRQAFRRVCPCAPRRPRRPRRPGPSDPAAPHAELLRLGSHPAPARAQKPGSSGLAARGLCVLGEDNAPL

On to `CNC(=N)NCCC[C@H](NC(=O)[C@H](CC(C)C)NC(=O)C1(NC(=O)[C@H](Cc2ccccc2)NC(=O)[C@@H](NC(=O)[C@H](CC(N)=O)NC(=O)[C@@H]2C[C@@H](O)CN2C(=O)[C@@H](Cc2ccc(Cl)cc2Cl)NC(C)=O)[C@@H](C)O)CCCCC1)C(=O)N[C@@H](Cc1c[nH]c2ccccc12)C(N)=O` [YA-196, Ac-[D-Phe(2,4-DiCl)]-Hyp-Asn-Thr-Phe-A6c-Leu-Arg (Me)-Trp-NH2] (Ac-[dPhe(2,4-Cl2)][Hyp]NTF[Ac6c]L[Arg(Me)]W-NH2), for which, under setting [1], the EC50 was determined as 0.48 nM.

Turning to `CNC(=N)NCCC[C@H](NC(=O)[C@H](CC(C)C)NC(=O)NNC(=O)[C@H](Cc1ccccc1)NC(=O)[C@@H](NC(=O)[C@H](CC(N)=O)NC(=O)[C@H](Cc1cccs1)NC(=O)[C@@H](Cc1ccc(Cl)cc1Cl)NC(C)=O)[C@@H](C)O)C(=O)N[C@@H](Cc1c[nH]c2ccccc12)C(N)=O` [YA-178, Ac-[D-Phe(2,4-DiCl)]-Thi-Asn-Thr-Phe-azaGly-Leu-Arg(Me)-Trp-NH2] (Ac-[dPhe(2,4-Cl2)][2Thi]NTF[azaGly]L[Arg(Me)]W-NH2), under setting [1], the EC50 was 0.011 nM.

As to `CNC(=N)NCCC[C@H](NC(=O)[C@H](CC(C)C)NC(=O)NNC(=O)[C@H](Cc1ccccc1)NC(=O)[C@@H](NC(=O)[C@H](CC(N)=O)NC(=O)[C@@H]1C[C@@H](O)CN1C(=O)[C@@H](NC(C)=O)C(c1ccccc1)c1ccccc1)[C@@H](C)O)C(=O)N[C@@H](Cc1c[nH]c2ccccc12)C(N)=O` [YA-132, Ac-Ala(dip)-Hyp-Asn-Thr-Phe-azaGly-Leu-Arg(Me)-Trp-NH2] (Ac-[Dip][Hyp]NTF[azaGly]L[Arg(Me)]W-NH2), the EC50 under setting [1] was 0.19 nM.

Take `CNC(=N)NCCC[C@H](NC(=O)[C@H](CC(C)C)NC(=O)NNC(=O)[C@H](Cc1ccccc1)NC(=O)[C@@H](NC(=O)[C@H](CC(N)=O)NC(=O)[C@@H]1C[C@@H](O)CN1C(=O)[C@@H](Cc1ccc(O)cc1)NC(C)=O)[C@@H](C)O)C(=O)N[C@@H](Cc1c[nH]c2ccccc12)C(=O)O` [YA-246, Ac-(D-Tyr)-Hyp-Asn-Thr-Phe-azaGly-Leu-Arg(Me)-Trp-OH] (Ac-[dY][Hyp]NTF[azaGly]L[Arg(Me)]W-OH): the EC50 (human kiss1 receptor (GPR54), NFAT-bla CHO-K1 cells, FRET, preliminary data, method of effect Embodiment 1, read-out: Preliminary measurement data (GPR54) EC50) was 2.86 nM.

Turning to `CCCCCCCCCCCCCCCC(=O)NCCOCCOCCOCCOCCOCCOCCOCCOCCC(=O)NCC(=O)NCC(=O)N[C@H](Cc1ccc(I)cc1)C(=O)N1C[C@H](O)C[C@H]1C(=O)N[C@@H](CC(N)=O)C(=O)N[C@H](C(=O)N[C@@H](Cc1ccccc1)C(=O)NNC(=O)N[C@@H](CC(C)C)C(=O)N[C@@H](CCCNC(=N)NC)C(=O)N[C@@H](Cc1c[nH]c2ccccc12)C(N)=O)[C@@H](C)O` [YA-366, Palm-PEG8-Gly-Gly-(D-Phe(4-I))-Hyp-Asn-Thr-Phe-AzaGly-Leu-Arg(Me)-Trp-NH2] ({Palmitoyl-PEG8}-GG[dPhe(4-I)][Hyp]NTF[azaGly]L[Arg(Me)]W-NH2), under setting [1], the EC50 came to 0.048 nM.

With `CCCCCCCCCCCCCCCC(=O)NCCOCCOCCOCCOCCOCCOCCOCCOCCC(=O)NCC(=O)NCC(=O)N[C@H](Cc1ccc(O)cc1)C(=O)N1C[C@H](O)C[C@H]1C(=O)N[C@@H](CC(N)=O)C(=O)N[C@H](C(=O)N[C@@H](Cc1ccccc1)C(=O)N1CC[C@H]1C(=O)N[C@@H](CC(C)C)C(=O)N[C@@H](CCCNC(=N)NC)C(=O)N[C@@H](Cc1c[nH]c2ccccc12)C(N)=O)[C@@H](C)O` [YA-287, Palm-PEG 8-Gly-Gly-D-Tyr-Hyp-Asn-Thr-Phe-Aze-Leu-Arg(Me)-Trp-NH2] ({Palmitoyl-PEG8}-GG[dY][Hyp]NTF[Aze]L[Arg(Me)]W-NH2), the EC50 under setting [1] amounted to 0.038 nM.

Take `CNC(=N)NCCC[C@H](NC(=O)[C@H](CC(C)C)NC(=O)CNC(=O)N(Cc1ccccc1)NC(=O)[C@@H](NC(=O)[C@H](CC(N)=O)NC(=O)[C@@H]1CCCCN1C(=O)[C@@H](Cc1ccc(Cl)cc1Cl)NC(C)=O)[C@@H](C)O)C(=O)N[C@@H](Cc1c[nH]c2ccccc12)C(N)=O` [YA-241, Ac-[D-Phe(2,4-diCl)]—(S-Pip)-Asn-Thr-azaPhe-Gly-Leu-Arg(Me)-Trp-NH2] (Ac-[dPhe(2,4-Cl2)][Pip]NT[azaPhe]GL[Arg(Me)]W-NH2): for the setting “Preliminary measurement data (GPR54) EC50, nM), GPR54, measured according to the method of effect Embodiment 1, preliminary data”, the EC50 was 0.93 nM.

`CCCCCCCCCCCCCCCC(=O)NCCOCCOCCOCCOCCOCCOCCOCCOCCC(=O)NCC(=O)NCC(=O)N[C@H](Cc1ccc(O)cc1)C(=O)NC1(C(=O)N[C@@H](CC(N)=O)C(=O)N[C@H](C(=O)N[C@@H](Cc2ccccc2)C(=O)NNC(=O)N[C@@H](CC(C)C)C(=O)N[C@@H](CCCNC(=N)NC)C(=O)N[C@@H](Cc2c[nH]c3ccccc23)C(N)=O)[C@@H](C)O)CCCCC1` [YA-268, Palm-PEG8-G-G-DY-A6c-Asn-Thr-Phe-azaG-Leu-Arg(Me)-Trp-NH2] ({Palmitoyl-PEG8}-GG[dY][Ac6c]NTF[azaGly]L[Arg(Me)]W-NH2): the EC50 under setting [1] came to 0.02 nM.

`CNC(=N)NCCC[C@H](NC(=O)[C@H](CC(C)C)NC(=O)NNC(=O)[C@H](Cc1ccccc1)NC(=O)[C@@H](NC(=O)[C@H](CC(N)=O)NC(=O)[C@@H]1C[C@@H](O)CN1C(=O)[C@@H](Cc1ccc(O)cc1)NC(C)=O)[C@@H](C)O)C(=O)N[C@H](Cc1ccco1)C(N)=O` [YA-169, Ac-(D-Tyr)-Hyp-Asn-Thr-Phe-azaGly-Leu-Arg(Me)-[3-(2-furyl)-D-Ala]-NH2] (Ac-[dY][Hyp]NTF[azaGly]L[Arg(Me)][dAla(2-furyl)]-NH2): the EC50 under setting [1] was 6.53 nM.

As to `CNC(=N)NCCC[C@H](NC(=O)[C@H](CC(C)C)NC(=O)[C@H]1CCCCN1C(=O)[C@H](Cc1ccccc1)NC(=O)[C@@H](NC(=O)[C@H](CC(N)=O)NC(=O)[C@@H]1C[C@@H](O)CN1C(=O)[C@@H](Cc1ccc(O)cc1)NC(C)=O)[C@@H](C)O)C(=O)N[C@@H](Cc1c[nH]c2ccccc12)C(N)=O` [YA-227, Ac-(D-Tyr)-Hyp-Asn-Thr-Phe-(R-Pip)-Leu-Arg(Me)-Trp-NH2] (Ac-[dY][Hyp]NTF[dPip]L[Arg(Me)]W-NH2), the EC50 under setting [1] is 1.89 nM.

In the case of `CNC(=N)NCCC[C@H](NC(=O)[C@H](CC(C)C)NC(=O)[C@@H]1CCN1C(=O)[C@H](Cc1ccccc1)NC(=O)[C@@H](NC(=O)[C@H](CC(N)=O)NC(=O)[C@@H]1C[C@@H](O)CN1C(=O)[C@H](Cc1ccc(F)cc1)NC(C)=O)[C@@H](C)O)C(=O)N[C@@H](Cc1c[nH]c2ccccc12)C(N)=O` [YA-190, Ac-Phe(4-F)-Hyp-Asn-Thr-Phe-Aze-Leu-Arg(Me)-Trp-NH2] (Ac-[Phe(4-F)][Hyp]NTF[Aze]L[Arg(Me)]W-NH2), the EC50 was 3.89 nM under setting [1] and 24.3 nM (NFAT-bla CHO-K1 cells that express human kiss1 receptor (GPR54), FRET, cells cultured with compound for 4 hours, read-out: GPR54 EC50/nM).

Turning to `CNC(=N)NCCC[C@H](NC(=O)[C@H](CC(C)C)NC(=O)NNC(=O)[C@H](Cc1ccccc1)NC(=O)[C@@H](NC(=O)[C@H](CC(N)=O)NC(=O)[C@@H]1C[C@@H](O)CN1C(=O)[C@H](Cc1ccc(C)cc1)NC(C)=O)[C@@H](C)O)C(=O)N[C@@H](Cc1c[nH]c2ccccc12)C(N)=O` [YA-74, Ac-Phe(4-Me)-Hyp-Asn-Thr-Phe-azaGly-Leu-Arg(Me)-Trp-NH2] (Ac-[Phe(4-Me)][Hyp]NTF[azaGly]L[Arg(Me)]W-NH2), the EC50 under setting [1] turned out to be 0.921 nM.

Regarding `CNC(=N)NCCC[C@H](NC(=O)[C@H](CC(C)C)NC(=O)NNC(=O)[C@H](Cc1ccccc1)NC(=O)[C@@H](NC(=O)[C@H](CC(N)=O)NC(=O)[C@@H]1C[C@@H](O)CN1C(=O)[C@H](Cc1ccc(OC)cc1)NC(C)=O)[C@@H](C)O)C(=O)N[C@@H](Cc1c[nH]c2ccccc12)C(N)=O` [YA-73, Ac-Tyr(Me)-Hyp-Asn-Thr-Phe-azaGly-Leu-Arg(Me)-Trp-NH2] (Ac-Y(Me)[Hyp]NTF[azaGly]L[Arg(Me)]W-NH2), the EC50 under setting [1] was determined as 1.32 nM.
